Like-named read-outs stand apart in the source and are kept apart here.
Conditions: for AUC0-tau: geometric mean ± geometric CV %
Procedure: There were 6 subjects treated with each dose and twelve subjects treated with placebo (two placebo-treated-subjects included with each dose group).
The blood samples were collected in K2EDTA, centrifuged and the plasma stored at −80° C. The samples were prepared for analysis by liquid/liquid extraction as follows. A 50 μL aliquot was extracted with 25 μL of methanol:water (50:50) and mixed; following which 250 μL of ammonia acetate 100 mM:ammonia hydroxide (95:5) was added and the solution was mixed. 750 μL of ethyl acetate was then added and mixed by aspirating and centrifuged at approximately 2500×g for 5 min. 400 μL of the organic layer was collected and evaporated under nitrogen at 40° C. The dried sample was reconstituted in 200 μL of ammonia acetate 10 mM:methanol:ammonia hydroxide (70:30:0.35) and centrifuged at 2000×g for 5 min. at room temperature. The extracted sample was then subjected to liquid chromatography using a Waters, Acquity, UPLC with a Gemini 3 μm NX-C18, 5×2 mm column. An injection volume of 8 μL was analyzed using Mobil phase A consisting of ammonium acetate 10 mM:ammonium hydroxide (100:0.5) and Mobile phase B consisting of methanol. The purified sample was then analyzed by mass spectrometry (LC-MS/MS). […] The effective calibration range was 0.2 to 200 ng/ml.

Question: Which results are given for `N#Cc1ccc([C@H]2CCCc3cncn32)cc1.O=P(O)(O)O` [DP13, (R)-(+)-5-(p-cyanophenyl)-5,6,7,8-tetrahydroimidazolium[1,5-a]pyridine dihydrogen phosphate]?
Answer: AUC0-t (1 mg single oral dose, Day 1): 45.8 ± 4.16 ng·h/mL; Cmax (1 mg single oral dose, Day 1): 4.68 ± 0.38 ng/mL; T1/2 (1 mg single oral dose, Day 1): 8.19 ± 0.43 h; Tmax (1 mg single oral dose, Day 1): 2.00 ± 0.49 h; AUC0-t (2 mg single oral dose, Day 1): 133 ± 27.41 ng·h/mL; Cmax (2 mg single oral dose, Day 1): 12.0 ± 1.71 ng/mL; T1/2 (2 mg single oral dose, Day 1): 11.3 ± 1.28 h; Tmax (2 mg single oral dose, Day 1): 2.08 ± 0.36 h; AUC0-t (4 mg once daily oral, Day 1): 139 ± 15.0 ng·h/mL; AUC0-∞ (4 mg once daily oral, Day 1): 167 ± 22.0 ng·h/mL; Cmax (4 mg once daily oral, Day 1): 14.0 ± 1.6 ng/mL; T1/2 (4 mg once daily oral, Day 1): 8.47 h; Tmax (4 mg once daily oral, Day 1): 2.08 ± 0.28 h; AUC0-t (4 mg once daily oral, Day 8): 154 ± 20.5 ng·h/mL; AUC0-∞ (4 mg once daily oral, Day 8): 154 ± 20.5 ng·h/mL; Cmax (4 mg once daily oral, Day 8): 15.1 ± 1.1 ng/mL; T1/2 (4 mg once daily oral, Day 8): 8.58 ± 1.1 h; Tmax (4 mg once daily oral, Day 8): 1.92 ± 0.35 h; AUC0-tau (4 mg, Day 1): 134 ± 29.2 ng·h/mL; AUC0-tau (4 mg, Day 8): 148 ± 33.0 ng·h/mL; AUC0-t (8 mg once daily oral, Day 1): 281 ± 24.2 ng·h/mL; AUC0-∞ (8 mg once daily oral, Day 1): 335 ± 31.5 ng·h/mL; Cmax (8 mg once daily oral, Day 1): 29.4 ± 2.5 ng/mL; T1/2 (8 mg once daily oral, Day 1): 8.82 ± 0.4 h; Tmax (8 mg once daily oral, Day 1): 1.81 ± 0.25 h; AUC0-t (8 mg once daily oral, Day 8): 338 ± 28.5 ng·h/mL; AUC0-∞ (8 mg once daily oral, Day 8): 338 ± 28.5 ng·h/mL; Cmax (8 mg once daily oral, Day 8): 37.9 ± 3.9 ng/mL; T1/2 (8 mg once daily oral, Day 8): 8.92 ± 0.5 h; Tmax (8 mg once daily oral, Day 8): 1.56 ± 0.26 h; AUC0-tau (8 mg, Day 1): 274 ± 24.9 ng·h/mL; AUC0-tau (8 mg, Day 8): 331 ± 22.5 ng·h/mL; AUC0-t (16 mg once daily oral, Day 1): 610 ± 34.7 ng·h/mL; AUC0-∞ (16 mg once daily oral, Day 1): 740 ± 65.8 ng·h/mL; Cmax (16 mg once daily oral, Day 1): 66.8 ± 6.1 ng/mL; T1/2 (16 mg once daily oral, Day 1): 9.04 ± 0.8 h; Tmax (16 mg once daily oral, Day 1): 1.88 ± 0.41 h; AUC0-t (16 mg once daily oral, Day 8): 725 ± 51.4 ng·h/mL; AUC0-∞ (16 mg once daily oral, Day 8): 725 ± 51.4 ng·h/mL; Cmax (16 mg once daily oral, Day 8): 77.4 ± 6.9 ng/mL; T1/2 (16 mg once daily oral, Day 8): 9.67 h; Tmax (16 mg once daily oral, Day 8): 1.88 ± 0.40 h; AUC0-tau (16 mg, Day 1): 603 ± 15.8 ng·h/mL; AUC0-tau (16 mg, Day 8): 714 ± 19.1 ng·h/mL; absorption (Tmax) (all dose levels): absorbed rapidly at all dose levels; dose proportionality of Cmax and AUC0-∞ (all dose levels): dose-proportional

Source: US11992479B2, “R-fadrozole for use in the treatment of aldostonerism” (priority 2018, dated 2024)
